Test results from PubChem BioAssay (NCI).
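Grown in 96-well plates, cells were treated for 48 hours with each compound at five concentrations. Insufficient inhibition: endpoint recorded as highest concentration tested. TGI is the concentration that stops growth completely.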

Key:
Experiment in all cases: growth of human tumour cells (NCI), 48 h
786-0 renal = system: 786-0 renal
A498 renal = system: A498 renal
A549 NSCLC = system: A549 NSCLC
ACHN renal = system: ACHN renal
BT-549 breast = system: BT-549 breast
CAKI-1 renal = system: CAKI-1 renal
CCRF-CEM leukemia = system: CCRF-CEM leukemia
DU-145 prostate = system: DU-145 prostate
EKVX NSCLC = system: EKVX NSCLC
HCC-2998 colon = system: HCC-2998 colon
HCT-116 colon = system: HCT-116 colon
HCT-15 colon = system: HCT-15 colon
HL-60(TB) leukemia = system: HL-60(TB) leukemia
HOP-62 NSCLC = system: HOP-62 NSCLC
HOP-92 NSCLC = system: HOP-92 NSCLC
HS 578T breast = system: HS 578T breast
IGROV1 ovarian = system: IGROV1 ovarian
K-562 leukemia = system: K-562 leukemia
KM12 colon = system: KM12 colon
LOX IMVI melanoma = system: LOX IMVI melanoma
MCF7 breast = system: MCF7 breast
MDA-MB-231 breast = system: MDA-MB-231 breast
MDA-MB-435 = system: MDA-MB-435
MDA-N = system: MDA-N
MOLT-4 leukemia = system: MOLT-4 leukemia
NCI-H226 lung = system: NCI-H226 lung
NCI-H460 lung = system: NCI-H460 lung
NCI-H522 lung = system: NCI-H522 lung
NCI/ADR-RES ovarian = system: NCI/ADR-RES ovarian
OVCAR-3 ovarian = system: OVCAR-3 ovarian
OVCAR-4 ovarian = system: OVCAR-4 ovarian
OVCAR-5 ovarian = system: OVCAR-5 ovarian
OVCAR-8 ovarian = system: OVCAR-8 ovarian
PC-3 prostate = system: PC-3 prostate
RPMI-8226 leukemia = system: RPMI-8226 leukemia
RXF 393 renal = system: RXF 393 renal
SF-295 CNS = system: SF-295 CNS
SF-539 CNS = system: SF-539 CNS
SK-MEL-2 melanoma = system: SK-MEL-2 melanoma
SK-MEL-28 melanoma = system: SK-MEL-28 melanoma
SK-MEL-5 melanoma = system: SK-MEL-5 melanoma
SK-OV-3 ovarian = system: SK-OV-3 ovarian
SN12C renal = system: SN12C renal
SNB-19 CNS = system: SNB-19 CNS
SNB-75 CNS = system: SNB-75 CNS
SW-620 colon = system: SW-620 colon
TK-10 renal = system: TK-10 renal
U251 CNS = system: U251 CNS
UACC-257 melanoma = system: UACC-257 melanoma
UACC-62 melanoma = system: UACC-62 melanoma
UO-31 renal = system: UO-31 renal
COLO 205 colon = system: COLO 205 colon
M14 melanoma = system: M14 melanoma
NCI-H23 lung = system: NCI-H23 lung
SF-268 CNS = system: SF-268 CNS
SR leukemia = system: SR leukemia
HT29 colon = system: HT29 colon
MALME-3M melanoma = system: MALME-3M melanoma
T-47D breast = system: T-47D breast

Cc1c(C#N)c2ccccc2c2nc3ccccc3n12
TGI (786-0 renal): > 100 µM | TGI (A498 renal): > 100 µM | TGI (A549 NSCLC): > 100 µM | TGI (ACHN renal): > 100 µM | TGI (BT-549 breast): > 100 µM | TGI (CAKI-1 renal): > 100 µM | TGI (CCRF-CEM leukemia): > 100 µM | TGI (DU-145 prostate): > 100 µM | TGI (EKVX NSCLC): > 100 µM | TGI (HCC-2998 colon): > 100 µM | TGI (HCT-116 colon): > 100 µM | TGI (HCT-15 colon): > 100 µM | TGI (HL-60(TB) leukemia): > 100 µM | TGI (HOP-62 NSCLC): > 100 µM | TGI (HOP-92 NSCLC): > 100 µM | TGI (HS 578T breast): > 100 µM | TGI (IGROV1 ovarian): > 100 µM | TGI (K-562 leukemia): > 100 µM | TGI (KM12 colon): > 100 µM | TGI (LOX IMVI melanoma): > 100 µM | TGI (MCF7 breast): > 100 µM | TGI (MDA-MB-231 breast): 86.9 µM | TGI (MDA-MB-435): > 100 µM | TGI (MDA-N): > 100 µM | TGI (MOLT-4 leukemia): > 100 µM | TGI (NCI-H226 lung): > 100 µM | TGI (NCI-H460 lung): > 100 µM | TGI (NCI-H522 lung): > 100 µM | TGI (NCI/ADR-RES ovarian): > 100 µM | TGI (OVCAR-3 ovarian): > 100 µM | TGI (OVCAR-4 ovarian): > 100 µM | TGI (OVCAR-5 ovarian): > 100 µM | TGI (OVCAR-8 ovarian): > 100 µM | TGI (PC-3 prostate): > 100 µM | TGI (RPMI-8226 leukemia): > 100 µM | TGI (RXF 393 renal): > 100 µM | TGI (SF-295 CNS): > 100 µM | TGI (SF-539 CNS): > 100 µM | TGI (SK-MEL-2 melanoma): > 100 µM | TGI (SK-MEL-28 melanoma): > 100 µM | TGI (SK-MEL-5 melanoma): 36.5 µM | TGI (SK-OV-3 ovarian): > 100 µM | TGI (SN12C renal): > 100 µM | TGI (SNB-19 CNS): > 100 µM | TGI (SNB-75 CNS): > 100 µM | TGI (SW-620 colon): > 100 µM | TGI (TK-10 renal): > 100 µM | TGI (U251 CNS): > 100 µM | TGI (UACC-257 melanoma): > 100 µM | TGI (UACC-62 melanoma): > 100 µM | TGI (UO-31 renal): > 100 µM

C/C=C1/CN2CCc3c([nH]c4ccccc34)[C@@H]2C[C@@H]1Cc1[nH]ccc2c1[nH]c1cc(=O)ccc12
TGI (786-0 renal): 3.19 µM | TGI (A498 renal): 4.94 µM | TGI (ACHN renal): > 100 µM | TGI (BT-549 breast): 31.4 µM | TGI (CAKI-1 renal): 3.8 µM | TGI (CCRF-CEM leukemia): > 100 µM | TGI (COLO 205 colon): > 100 µM | TGI (DU-145 prostate): 4.26 µM | TGI (EKVX NSCLC): 4.05 µM | TGI (HCT-15 colon): 10.6 µM | TGI (HOP-92 NSCLC): 37.6 µM | TGI (HS 578T breast): 4.15 µM | TGI (K-562 leukemia): > 100 µM | TGI (M14 melanoma): 4.78 µM | TGI (MDA-MB-435): 3.45 µM | TGI (MDA-N): 4.51 µM | TGI (MOLT-4 leukemia): > 100 µM | TGI (NCI-H226 lung): > 100 µM | TGI (NCI-H23 lung): 3.34 µM | TGI (NCI-H460 lung): 64.4 µM | TGI (NCI/ADR-RES ovarian): 3.49 µM | TGI (OVCAR-3 ovarian): 5.15 µM | TGI (OVCAR-4 ovarian): 3.73 µM | TGI (OVCAR-5 ovarian): 8.64 µM | TGI (OVCAR-8 ovarian): 3.17 µM | TGI (PC-3 prostate): 6.88 µM | TGI (SF-268 CNS): 3.33 µM | TGI (SK-MEL-28 melanoma): 4.5 µM | TGI (SK-OV-3 ovarian): 4.4 µM | TGI (SN12C renal): 3.17 µM | TGI (SNB-19 CNS): > 100 µM | TGI (SNB-75 CNS): 3.36 µM | TGI (SR leukemia): > 100 µM | TGI (SW-620 colon): > 100 µM | TGI (TK-10 renal): 4.33 µM | TGI (UACC-62 melanoma): 3.62 µM | TGI (UO-31 renal): 2.94 µM

CC(=O)Nc1ccc2c3c(cc(O)c2c1)N(C(=O)CCCCCC(=O)N1CC(CCl)c2c1cc(O)c1cc(NC(C)=O)ccc21)CC3CCl (configuration not stated)
TGI (786-0 renal): 0.0412 µM | TGI (BT-549 breast): 0.0736 µM | TGI (CAKI-1 renal): 0.918 µM | TGI (DU-145 prostate): 0.0392 µM | TGI (EKVX NSCLC): 0.803 µM | TGI (HCT-15 colon): 14.2 µM | TGI (HL-60(TB) leukemia): 26 µM | TGI (HOP-62 NSCLC): > 100 µM | TGI (HOP-92 NSCLC): 0.0392 µM | TGI (HT29 colon): > 33.3 µM | TGI (IGROV1 ovarian): > 87.2 µM | TGI (K-562 leukemia): > 100 µM | TGI (KM12 colon): 0.636 µM | TGI (LOX IMVI melanoma): > 100 µM | TGI (M14 melanoma): 0.125 µM | TGI (MALME-3M melanoma): 0.0654 µM | TGI (MDA-MB-231 breast): 0.0503 µM | TGI (MDA-MB-435): 0.187 µM | TGI (MDA-N): 0.085 µM | TGI (NCI-H226 lung): 0.0915 µM | TGI (NCI-H460 lung): > 100 µM | TGI (NCI/ADR-RES ovarian): > 100 µM | TGI (OVCAR-5 ovarian): 13.3 µM | TGI (PC-3 prostate): 1.8 µM | TGI (SF-295 CNS): > 100 µM | TGI (SF-539 CNS): 0.205 µM | TGI (SK-MEL-28 melanoma): > 100 µM | TGI (SK-MEL-5 melanoma): 0.0198 µM | TGI (SK-OV-3 ovarian): > 100 µM | TGI (SNB-19 CNS): > 100 µM | TGI (SW-620 colon): > 100 µM | TGI (T-47D breast): 0.02 µM | TGI (TK-10 renal): > 100 µM | TGI (UACC-62 melanoma): 0.0248 µM

CC1=C(/C=C/C(=O)O)C(C)(C)CCC1
TGI (786-0 renal): > 100 µM | TGI (A498 renal): > 100 µM | TGI (A549 NSCLC): > 100 µM | TGI (ACHN renal): > 100 µM | TGI (BT-549 breast): > 100 µM | TGI (CAKI-1 renal): > 100 µM | TGI (COLO 205 colon): > 100 µM | TGI (DU-145 prostate): > 100 µM | TGI (EKVX NSCLC): > 100 µM | TGI (HCC-2998 colon): > 100 µM | TGI (HCT-116 colon): > 100 µM | TGI (HCT-15 colon): > 100 µM | TGI (HL-60(TB) leukemia): > 100 µM | TGI (HOP-62 NSCLC): > 100 µM | TGI (HOP-92 NSCLC): > 100 µM | TGI (HS 578T breast): > 100 µM | TGI (HT29 colon): > 100 µM | TGI (IGROV1 ovarian): > 100 µM | TGI (K-562 leukemia): > 100 µM | TGI (LOX IMVI melanoma): > 100 µM | TGI (M14 melanoma): > 100 µM | TGI (MALME-3M melanoma): > 100 µM | TGI (MCF7 breast): > 100 µM | TGI (MDA-MB-231 breast): > 100 µM | TGI (MDA-MB-435): > 100 µM | TGI (MDA-N): > 100 µM | TGI (NCI-H226 lung): > 100 µM | TGI (NCI-H23 lung): > 100 µM | TGI (NCI-H460 lung): > 100 µM | TGI (NCI-H522 lung): > 100 µM | TGI (NCI/ADR-RES ovarian): > 100 µM | TGI (OVCAR-3 ovarian): > 100 µM | TGI (OVCAR-4 ovarian): > 100 µM | TGI (OVCAR-5 ovarian): > 100 µM | TGI (OVCAR-8 ovarian): > 100 µM | TGI (PC-3 prostate): > 100 µM | TGI (RPMI-8226 leukemia): > 100 µM | TGI (RXF 393 renal): > 100 µM | TGI (SF-268 CNS): > 100 µM | TGI (SF-295 CNS): > 100 µM | TGI (SF-539 CNS): > 100 µM | TGI (SK-MEL-2 melanoma): > 100 µM | TGI (SK-MEL-28 melanoma): > 100 µM | TGI (SK-MEL-5 melanoma): > 100 µM | TGI (SK-OV-3 ovarian): > 100 µM | TGI (SN12C renal): > 100 µM | TGI (SNB-19 CNS): > 100 µM | TGI (SNB-75 CNS): > 100 µM | TGI (SR leukemia): > 100 µM | TGI (SW-620 colon): > 100 µM | TGI (TK-10 renal): > 100 µM | TGI (U251 CNS): > 100 µM | TGI (UACC-257 melanoma): > 100 µM | TGI (UACC-62 melanoma): > 100 µM | TGI (UO-31 renal): > 100 µM
